Test system: CYP1A1
Assay: P450-GLO activity assay, CYP1A1 induction in hMSC-derived hepatocytes
Conditions: inducer for 2 days

`Cc1ccc2cc3c(ccc4ccccc43)c3c2c1CC3` [3-methylcholanthrene] was tested, and the “CYP1A1 activity after inducer treatment” value was “induced”.
